Results on two compounds are retold here after patent publication US20060074073A1, “Therapeutic combinations comprising poly (ADP-ribose) polymerases inhibitor” (AGOURON PHARMACEUTICALS, INC., priority 2004, published 2006).

In data set [1] the test system is SW620 human colon carcinoma xenograft. In words: In vivo antitumor efficacy with temozolomide, SW620 xenograft.
Data set [2] deals with LoVo xenografts. In words: In vivo antitumor efficacy with irinotecan, LoVo xenograft. Also on record: species or system mice. The conditions noted are these: once weekly × 3. The source says: In no combination study was antagonism observed.
The nature of data set [3]: Plasma and tumor levels by HPLC/MS in mice bearing SW620 xenograft. It counts as in vivo. The method, then: In a parallel study plasma and tumor levels of the compound of formula 1 were measured by an HPLC/MS assay. In addition the degree of inhibition of tumor PARP catalytic activity was assessed using P^32-NAD incorporation into poly-ADP-ribose polymer in homogenates from SW620 tumors of treated animals. […] PARP catalytic activity was inhibited by 50% at 6 h and by 25% at 24 h.

Data set [4] has as its system PARP. As to the kind of experiment: Tumor PARP catalytic activity, 32P-NAD incorporation in SW620 tumor homogenates of treated animals. Type of data set: in vivo, mice. Here is the method:
Tumours were excised and were snap frozen in liquid nitrogen and stored at −80° C. until homogenised for analysis. The specimen was defrosted on ice and the wet weight documented. The tissue was homogenised using a Pro 2000 instrument (Pro Scientific Inc, Monroe, Conn., USA) in 3 volumes (i.e. 1 mg plus 3 μl isotonic buffer −7 mM Hepes, 26 mM KCl, 0.1 mM dextran, 0.4 mM EGTA, 0.5 mM MgCl2, 45 mM sucrose, pH 7.8), giving a homogenate with an overall dilution of 1 in 4. The homogenate was kept on ice throughout the process, and homogenisation was performed in 10 second bursts to prevent undue warming of the sample. Prior to assay the samples were further diluted with isotonic buffer where necessary to give a final dilution of 1 in 40 for [^32P]NAD incorporation assay or 1 in 1000 for immunoblot aaasy.
Briefly, cells were suspended in hypotonic buffer (9 mM HEPES pH 7.8, 4.5% (v/v) dextran, 4.5 mM MgCl2 and 5 mM DTT) at 1.5×10^7/ml on ice for 30 minutes then 9 vol of isotonic buffer (40 mM HEPES pH 7.8, 130 mM KCl, 4% (v/v) dextran, 2 mM EGTA, 2.3 mM MgCl2, 225 mM sucrose and 2.5 mM DTT) was added. The reaction was started by adding 300 μl cells to 100 μl 300 μM NAD^+ containing [^32P]-NAD^+ (Amersham, UK), and terminated by the addition of 2 ml ice cold 10% (w/v) TCA+10% (w/v) sodium pyrophosphate. After 30 min on ice the precipitated ^32P—labelled ADP-ribose polymers were filtered on Whatman GC/C filters (Whatman Intemational Ltd, Kent, UK), washed 5 times with 1% (v/v) TCA/1% (v/v) sodium pyrophosphate, dried and counted. PARP inhibitory IC50 values were calculated from computer-fitted curves (GraphPad Software, Inc., San Diego, Calif.).
Tumour homogenates were assayed in a similar manner; however, the homogenisation process introduces sufficient DNA damage to maximally stimulate PARP activity and oligonucleotide was not therefore required. Results were expressed in terms of pmol PAR former per mg tumour.
Preparation of Tumour/Tissue Samples • 1. The frozen tumour samples are weighed. • 2. 3 volumes (i.e. 3 μl solution added for each 1 mg tissue) of isotonic buffer plus DTT is added to the tumour sample. This is stored on ice until and during homogenisation. • 3. The sample is homogenised on ice within a Class II cabinet for 10-second bursts until no detectable macroscopic pieces of tissue are visible. • 4. Sufficient volume of the homogenate is diluted 1 in 10 with isotonic buffer plus DTT to provide an overall dilution of 1 in 40 from the original sample. A final volume of 3 ml is sufficient for triplicate sampling and a subsequent protein assay. • 5. The diluted homogenate is stored on ice and assayed within one hour as below.
PARP Assay of Tumour/Tissue Samples • 1. ^32P 600 μM NAD solution is prepared fresh on the day of experiment as detailed above. Oligonucleotide stock is removed from storage and defrosted. • 2. Water bath is warmed to 26° C. and set to agitate at 70 oscillations per minute.
3. Reaction test tubes are set up as per table A for the QC samples and as per table B for the homogenate.
• 4. Each QC sample is assayed in triplicate, with T0, +oligo and −oligo samples ×3. (Total of 9 tubes per sample, if low cell counts −oligo samples are omitted.) Homogenates are also assayed in triplicate, with T0 and reaction samples ×3. (Total 6 tubes per sample). • 5. 2 ml ice cold 10% TCA+10% NaPPi is added to the T0 tubes prior to addition of homogenate or cells, to correct for non-specific binding of radio-label to the filter. • 6. Reaction test tubes homogenates and QC cells are warmed in the water bath to 26° C. for 7 minutes. • 7. Each preparation is vortexed briefly and the reaction is started by adding 300 μl of this to each reaction tube. • 8. The reaction is stopped exactly 6 minutes after addition of homogenate by adding 2 ml of ice cold 10% TCA+10% NaPPi and vortexing. • 9. The tube is then incubated on ice for at least one hour prior to filtration. • 10. […]

Marks after values point to notes of the source that are not given here. A value given as a limit tells only on which side of the number the result lay.

On to `CNCc1ccc(-c2[nH]c3cc(F)cc4c3c2CCNC4=O)cc1.O=P(O)(O)O` [Compound I, phosphate salt of 8-fluoro-2-{4-[(methylamino)methyl]phenyl}-1,3,4,5-tetrahydro-6H-azepino[5,4,3-cd]indol-6-one], for which the single-agent antitumor effects entry in data set [1] (Compound I alone) is reported as “no single-agent antitumor effects”.

Take `CNCc1ccc(-c2[nH]c3cc(F)cc4c3c2CCNC4=O)cc1.O=C[C@H](O)[C@@H](O)[C@H](O)[C@H](O)C(=O)O` [compound of formula 1 glucuronate salt]: the “Enhancement (%)” value in data set [2] (irinotecan 25 mg/kg i.p. + 0.0 mg/kg i.p. (glucuronate salt)) was 0%; in data set [2] (irinotecan 25 mg/kg i.p. + 0.15 mg/kg i.p. (glucuronate salt)) it was 71%; in data set [2] (irinotecan 25 mg/kg i.p. + 0.5 mg/kg i.p. (glucuronate salt)) it was 86^f %; in data set [1] (SW620, 0.1 mg/kg i.p. glucuronate salt + temozolomide 68 mg/kg p.o., QD×5) it was 28^g %; in data set [1] (SW620, 1.0 mg/kg i.p. glucuronate salt + temozolomide 68 mg/kg p.o., QD×5) it was “≧100^g %”; in data set [1] (SW620, temozolomide 68 mg/kg oral + 0.05 mg/kg i.p. (glucuronate salt), once daily for 5 days), 35%. Besides, the “Enhancement (%)” value in data set [1] (SW620, temozolomide 68 mg/kg oral + 0.15 mg/kg i.p. (glucuronate salt), once daily for 5 days) is recorded as 270^f %; in data set [1] (SW620, temozolomide 68 mg/kg oral + 0.5 mg/kg i.p. (glucuronate salt), once daily for 5 days), >60^f, g %. Also, the “Plasma compound of formula 1” value is 12.7 ± 2.3 ng/mL in data set [3] (0.1 mg/kg i.p. as glucuronate salt + temozolomide 68 mg/kg p.o., 0.5 h); 0.0 ± 0.0 ng/mL in data set [3] (0.1 mg/kg i.p. as glucuronate salt + temozolomide 68 mg/kg p.o., 6 h); 0.0 ± 0.0 ng/mL in data set [3] (0.1 mg/kg i.p. as glucuronate salt + temozolomide 68 mg/kg p.o., 24 h); 92.0 ± 28.0 ng/mL in data set [3] (1.0 mg/kg i.p. as glucuronate salt + temozolomide 68 mg/kg p.o., 0.5 h); 4.7 ± 4.0 ng/mL in data set [3] (1.0 mg/kg i.p. as glucuronate salt + temozolomide 68 mg/kg p.o., 6 h); 0.0 ± 0.0 ng/mL in data set [3] (1.0 mg/kg i.p. as glucuronate salt + temozolomide 68 mg/kg p.o., 24 h). Besides, the “Plasma compound of formula 1” value is 1532 + 134 ng/mL in data set [3] (10 mg/kg i.p. as glucuronate salt + temozolomide 68 mg/kg p.o., 0.5 h); 98.0 ± 28.0 ng/mL in data set [3] (10 mg/kg i.p. as glucuronate salt + temozolomide 68 mg/kg p.o., 6 h); 17.8 ± 29.5 ng/mL in data set [3] (10 mg/kg i.p. as glucuronate salt + temozolomide 68 mg/kg p.o., 24 h). The “PARP Activity (%)” value is 77.6 ± 13.3% in data set [4] (0.1 mg/kg i.p. glucuronate salt + temozolomide 68 mg/kg, 0.5 h); 90.2 ± 11.5% in data set [4] (0.1 mg/kg i.p. glucuronate salt + temozolomide 68 mg/kg, 6 h); 100.4 ± 7.5% in data set [4] (0.1 mg/kg i.p. glucuronate salt + temozolomide 68 mg/kg, 24 h); 24.9 ± 16.2% in data set [4] (1.0 mg/kg i.p. glucuronate salt + temozolomide 68 mg/kg, 0.5 h); 68.6 ± 36.2% in data set [4] (1.0 mg/kg i.p. glucuronate salt + temozolomide 68 mg/kg, 6 h); 70.2 ± 19.0% in data set [4] (1.0 mg/kg i.p. glucuronate salt + temozolomide 68 mg/kg, 24 h). Further, the “PARP Activity (%)” value in data set [4] (10 mg/kg i.p. glucuronate salt + temozolomide 68 mg/kg, 0.5 h) is given as 3.4 ± 1.4%; in data set [4] (10 mg/kg i.p. glucuronate salt + temozolomide 68 mg/kg, 6 h), 4.8 ± 0.87%; in data set [4] (10 mg/kg i.p. glucuronate salt + temozolomide 68 mg/kg, 24 h) it was 18.3 ± 12.7%. Further, in data set [1] (SW620, temozolomide 68 mg/kg + 0.05 or 0.15 mg/kg glucuronate salt QD×5), the body weight loss entry is reported as “No body weight loss”. In data set [1] (SW620, temozolomide 68 mg/kg + 0.15 or 0.5 mg/kg glucuronate salt QD×5), the complete remission rate is 100%.
